The test system of experiment [1] is HCT116 cells. Put plainly: Ferroptosis in confluent HCT116 cells expressing shEcad, shMerlin or shLats1/2. It counts as cell-based, human. The conditions noted are these: cell death 18 h, lipid ROS 14 h; versus shNT. The method, then:
(§1) Measurement of cell death, cell viability and lipid peroxidation. Cell death was analyzed by propidium iodide (Invitrogen, Waltham, Mass., USA) or SYTOX Green (Invitrogen) staining followed by microscopy or flow cytometry. For 3D spheroids, cell viability was determined using the CellTiter-Glo® 3D Cell Viability Assay (Promega, Madison, Wis., USA) according to the manufacturer's instructions. Viability was calculated by normalizing ATP levels to spheroids treated with normal full media. To analyze lipid peroxidation, cells were stained with 5 μM BODIPY-C11 (Invitrogen) for 30 minutes at 37° C. followed by flow cytometric analysis.
The involvement of the Hippo signaling in the regulation of ferroptosis by cell-cell contact was also assessed. Cells depleted of Ecad, Merlin, or Lats were generated using shRNA technology. HCT116 cells were infected by lentiviruses expressing shRNA sequences targeting Ecad (shEcad), Merlin (shMerlin), or Lats1/2 (shLats1/2), as indicated. Knockdown efficiency was confirmed by Western blot (FIG. 2B). […] Cell death was measured at 30 h using SYTOX Green staining followed by flow cytometry. Lipid ROS was measured at 24 hours using C11-BODIPY staining coupled with flow cytometry. […] Cell death was measured at 18 h and lipid ROS was measured at 14 h (FIG. 11A).

A further experiment concerns MSTO-211H cells. The experiment is described as follows: Ferroptosis in confluent MSTO-211H cells (shMerlin, shNcad). It counts as cell-based, human. The method, then:
as §1
To confirm the ferroptosis-regulating role of Merlin in mesothelioma cells, the effect of Merlin knockdown on ferroptosis sensitivity was assessed. MSTO-211H cells were infected with lentiviruses expressing shMerlin. RNAi knockdown efficiency was confirmed by Western blot (FIG. 3F). Then, shNT or shMerlin MSTO-211H cells were cultured to high confluence, at which point they were treated with media containing or lacking cystine, with or without Fer-1 for 24 h. Cell death was measured by SYTOX Green staining followed by flow cytometry (FIG. 3G). To measure lipid reactive species, shNT or shMerlin MSTO-211H cells were treated for 18 h, at which point they were stained with 2 μM C11-BODIPY for lipid ROS measurement (FIG. 311). Confluent MSTO-211H cells expressing shNT or shMerlin were also treated with 1 μM RSL3 with or without […] Fer-1. Cell death (left, 24 h after treatment) and lipid ROS production (right, 16 h) were measured (FIG. 13B).
Therefore, the cell density dependence of ferroptosis is not limited to epithelial cells expressing Ecad. […] To assess the expression of N-cadherin in MSTO-211H mesothelioma cells, the cells were cultivated at different cell densities, and the levels of Ncad, p-YAP and total YAP were analyzed by Western blot. […] Therefore, the potential role of Ncad in ferroptosis was tested. MSTO-211H cells were infected with lentiviruses expressing Ncad shRNA (shNcad) and selected with puromycin.

Experiment [2] deals with HCT116 cells. The experiment is described as follows: RSL3-induced cell death in HCT116 cells overexpressing TFRC and/or ACSL4. It counts as cell-based, human. The conditions noted are these: 2 μM RSL3, 24 h; SYTOX Green. The procedure: To test whether TFRC and ACSL4 can directly enhance ferroptosis in confluent cells, TFRC and ACSL4 separately or in combination were overexpressed. HCT116 cells were transduced with retroviral particles containing mCherry-ACSL4, transfected with TFRC, or both. Expression was assayed by Western blot. Two bands were detected for mCherry-ACSL4, representing the full-length mCherry-ACSL4 and that with mCherry tag truncated (FIG. 17A). Additionally, cells were plated at the indicated density and treated with 2 μM RSL3 for 24 h. Cell death was measured by SYTOX Green staining coupled with flow cytometry.

The subject of a further experiment is MEFs. The experiment is described as follows: Ferroptosis and lipid ROS in MEFs. It counts as cell-based, mouse. The procedure: as §1
Merlin-regulated ferroptosis in cell density dependent manner was also observed in MEFs, which are not of epithelial origin. Cell death of MEFs with different cell density induced by cystine starvation for 12 h was measured by PI staining (FIG. 15A), and flow cytometry (FIG. 15B). The effect of cystine starvation on lipid ROS production in MEFs cells with different cell density (6 h treatment) is also shown in FIG. 15B. […] As shown in FIGS. 15A-15D, increased cell density mitigated both cell death and lipid ROS generation induced by cystine starvation, erastin and RSL3 in MEFs.
MEFs also regulated the activity of YAP at high density in a Merlin-dependent manner. MEFs seeded at increasing density were probed for YAP localization by Immunofluorescence (FIG. 15E). The effect of Merlin was assessed by infecting MEFs with shMerlin lentivirus and selected with puromycin. […] As shown in FIGS. 15E-15F, with increasing cell confluence, there was an increase of YAP nuclear exclusion in MEFs, which was attenuated by Merlin knockdown.

Experiment [3] deals with HCT116 cells. The experiment is described as follows: Cell density-dependent induction of ferroptosis in HCT116 cells (cell death and lipid ROS by flow cytometry). It counts as cell-based, human. The settings on record: 5 μM RSL3; different cell density; cell death 24 h, lipid ROS 16 h. The method, then: Induction and inhibition of ferroptosis. To induce ferroptosis, cells with different density were seeded in 6-well plates. For cystine-starvation experiments, cells were washed with PBS twice and then cultured in cystine-free medium in the presence of 10% (v/v) dialyzed FBS for the indicated time. The ferroptosis inducing compounds erastin and RSL3 and the ferroptosis inhibitor Ferrostatin-1 were purchased from Sigma-Aldrich (St. Louis, Mo., USA).
Measurement of cell death, cell viability and lipid peroxidation. Cell death was analyzed by propidium iodide (Invitrogen, Waltham, Mass., USA) or SYTOX Green (Invitrogen) staining followed by microscopy or flow cytometry. For 3D spheroids, cell viability was determined using the CellTiter-Glo® 3D Cell Viability Assay (Promega, Madison, Wis., USA) according to the manufacturer's instructions. Viability was calculated by normalizing ATP levels to spheroids treated with normal full media. […]
To test erastin-induced ferroptosis, HCT116 cells with different cell density were treated with 30 μM erastin and quantification of cell death by propidium iodide (PI) staining followed by flow cytometry (after 30 h of erastin treatment). Lipid ROS production was assessed by C11-BODIPY staining followed by flow cytometry (after 24 h of erastin treatment). […]

The test system of experiment [4] is HCT116 cells. Put plainly: Ferroptosis in HCT116 cells expressing PAK-CAAX. It counts as cell-based, human. The settings on record: constitutively active PAK-CAAX versus inactive PAK^K298R-CAAX.
Experiment [5] has as its system NF639 cells. The experiment is described as follows: Expression of EMT-related genes by qPCR after TGF-β. It counts as cell-based, mouse. The conditions noted are these: various concentrations of TGF-β, 48 h. The procedure:
RNA extraction and qRT-PCR. RNA was extracted using the TRIzol reagent (Invitrogen). 20% chloroform was added to each sample, vortexed briefly, and incubated at room temperature for 15 min. Samples were then centrifuged at high speed at 4° C. for 15 min. The aqueous phase was moved to a new tube and an equal volume of isopropanol was added. Samples were incubated at room temperature for 10 min, followed by centrifugation at high speed at 4° C. for 10 min. Pellets were washed in 95% ethanol, dried, and resuspended in nuclease-free water. cDNA was synthesized using iScript™ cDNA Synthesis Kit according to the manufacturer's instructions (Bio-Rad). qRT-PCR was performed with IQ™ SYBR® Green Supermix (Bio-Rad) in a CFX Connect Real-Time PCR Detection System (Bio-Rad).
The potential link between epithelial-mesenchymal transition (EMT) and ferroptosis was examined using cells generated from mammary tumors of MMTV-neu mice. NF639 cells, derived from mouse mammary tumors containing MMTV-neu, were treated with various concentrations of TGF-β for 48 h to induce EMT. TGF-β can enhance EMT in cells bearing overactive HER2/neu signaling. Expression of a panel of EMT-related genes was assayed by qPCR as indicated.

Experiment [6] relates to NF639 cells. The experiment is described as follows: Cystine deprivation-induced ferroptosis after TGF-β. It counts as cell-based, mouse. The conditions noted are these: 6 ng/μL TGF-β 48 h; 3.2×10^5 cells/3.5 cm^2 well; cystine-free 12 h; untreated cells highly resistant. The method, then: To determine the effect of TGF-β on cystine deprivation induced ferroptosis, NF639 cells were treated with or without 6 ng/μL TGF-β for 48 h, at which point they were plated at low density (0.8 cells×10^5/3.5 cm^2 well), grown overnight, and treated with media containing or lacking cystine, or lacking cystine with 1 μM ferrostatin-1 for 12 h. NF639 cells were also plated at a high density of 3.2×10^5 cells/3.5 cm^2 well, grown overnight and treated with media containing or lacking cystine, or lacking cystine with 1 μM ferrostatin-1 for 12 h. Cell death was measured by Sytox green staining coupled with flow cytometry.

From patent US20220249484A1, “METHODS FOR PREDICTING RESPONSIVENESS OF CANCER TO FERROPTOSIS-INDUCING THERAPIES” (Memorial Sloan Kettering Cancer Center, priority 2019, published 2022) come the findings set out here.

As to `COC(=O)c1ccc([C@@H]2c3[nH]c4ccccc4c3C[C@@H](C(=O)OC)N2C(=O)CCl)cc1` [RSL3], in the experiment on HCT116 cells [1], the “RSL3-induced cell death and lipid ROS after knockdown of Ecad, Merlin, Lats1/2” value is “sensitized HCT116 cells to ferroptosis and increased lipid ROS accumulation”. For the same compound, the “sensitivity of confluent shNcad cells to RSL3 (cell death)” value in the experiment with MSTO-211H cells (1 μM RSL3, 16 h) is “sensitized these cells to ferroptosis”. Besides, the “sensitivity of confluent shMerlin cells to RSL3 (cell death, lipid ROS)” value with MSTO-211H cells (1 μM RSL3, cell death 24 h, lipid ROS 16 h) was “became sensitive”. Further, in the experiment with HCT116 cells [2], the “RSL3-induced cell death, confluent cells co-expressing TFRC and ACSL4” value is on record as “further enhanced cell death”; the “RSL3-induced cell death, confluent cells expressing either TFRC or ACSL4” value is “partially sensitized to ferroptosis”. Moreover, the “RSL3-induced ferroptosis and lipid ROS in MEFs at different densities” value with MEFs (1 μM RSL3, ferroptosis 8 h, lipid ROS 5 h) is “ferroptosis (8 h) and lipid ROS production (5 h) was also observed”. For the same compound, the “RSL3-induced cell death and lipid ROS in confluent Merlin RNAi MEFs” value in the experiment with MEFs (RSL3 1 μM, 8 h) is “increased cell death and lipid ROS production”. For the same compound, in the experiment on HCT116 cells [3], the “RSL3-induced ferroptosis (cell death, lipid ROS)” value was “induces HCT116 human colon cancer cells to undergo ferroptosis in a cell density-dependent manner”. Besides, the “RSL3-induced ferroptosis in PAK-CAAX expressing cells” value in the experiment on HCT116 cells [4] is on record as “enhanced RSL3-induced ferroptosis”.

Regarding TGF-β, the “expression of EMT-related genes” value in the experiment on NF639 cells [5] was “upregulated the expression of multiple EMT-related genes”. Besides, in the experiment with NF639 cells [6], the “cell death under cystine starvation at high cell density” value is “died under cystine starvation at high cell density”.
